{
  "source": "patent US20040023386A1",
  "about": "“Modulation of nitric oxide synthase by PKC” (Joslin Diabetes Center, Inc., a Massachusetts corporation, priority 2000, published 2004)",
  "key": {"[1]": {"system": "IRS-2-associated PI-3 kinase", "experiment": "Assay of IRS-2-associated PI-3 kinase activity in BAECs", "type": "cell-based, bovine", "procedure": "After preincubation with or without 100 nmol/L PMA for 30 minutes, BAECs were stimulated with insulin (100 nmol/L) for 5 minutes. Cells were processed as described previously for this assay. Aliquots of proteins from the supernatant were immunoprecipitated with 10 μL/ml anti-alpha-insulin receptor substrates (IRS)-2 antibodies (kindly provided by Dr Morris F. White, Joslin Diabetes Center, Boston, Mass) for 2 hours and bound to protein A-Sepharose beads at 4° C. as described previously. The lipids were quantified with a PhosphorImager."}, "eNOS mRNA [2]": {"system": "eNOS mRNA", "experiment": "eNOS mRNA level in BAECs (Northern blot)", "type": "cell-based, bovine", "procedure": "(§1) Bovine aortic endothelial cells (BAECs) from passages 4 to 10 were isolated. Confluent cells were placed in DMEM containing 1% platelet-deprived horse serum (PDHS) for 24 hours before being studied and pretreated with the following inhibitors: phosphatidylinositol-3 (PI-3) kinase-selective inhibitors wortmannin (Sigma Chemical Co) and LY294002 (BIOMOL Research Laboratories), protein kinase C (PKC) activator phorbol-12-myristate-13-acetate (PMA) (Sigma Chemical Co), general PKC inhibitor GF109203X (GFX) (Calbiochem-Novabiochem Corp), and PKCβ isoform-selective inhibitor LY333531 (Lilly Inc). Cells were then stimulated with insulin (Sigma Chemical Co), recombinant insulin-like growth factor-1 (IGF-1) (Upstate Biotechnology), and LPC (Avanti Polar Lipid) or alpha-IR3 antibodies.\n(§2) Total RNA from cultured BAECs, PKCβ1-overexpressed BAECs, and vascular stroma from the epididymal fat pads of Zucker rats were isolated according to the guanidinium thiocyanate-phenol-chloroform method with TRI Reagent (Molecular Research Center) and solution D containing 4 mol/L guanidinium thiocyanate, 25 mmol/L sodium citrate, pH 7.0, 0.5% sarcosyl, and 0.1 mol/L 2-mercaptoethanol. Total RNA (20 μg) was fractionated and hybridized to 650-bp cDNA fragments of rat eNOS (kindly provided by Dr Mark A. Perella and Arthur M. E. Lee, Harvard School of Public Health, Boston, Mass.), which were labeled with the use of a DNA labeling system (Multiprime; Amersham Corp). The quantification of eNOS mRNA levels was performed with a PhosphorImager (Molecular Dynamics) and normalized to 36B4 mRNA."}, "NOS activity": {"system": "NOS activity", "experiment": "Assay of NOS activity in BAECs", "type": "cell-based, bovine", "settings": "insulin 100 nmol/L", "procedure": "The amount of NOS activity produced by BAECs was measured by using an NOS Detect assay kit (Transduction Laboratories) according to the manufacturer's instructions. Briefly, BAECs were harvested in PBS containing 1 mmol/L EDTA and centrifuged at 12 000 g. The pellets were lysed in homogenization buffer containing 25 mmol/L Tris, pH 7.4, 1 mmol/L EDTA, and 1 mmol/L EGTA and centrifuged at 12 000 g. Aliquots from the supernatant were used for the measurement of NOS activity through the conversion of [^3H]L-arginine to [^3H]L-citrulline. Data were normalized by the amount of protein and reaction time."}, "eNOS mRNA [3]": {"system": "eNOS mRNA", "experiment": "eNOS mRNA level in vascular stroma from epididymal fat pads of Zucker rats", "type": "cell-based", "settings": "insulin 100 nmol/L, 6 hours", "procedure": "Vascular stromas were obtained from the epididymal fat pads of 12-week-old Zucker lean and fatty rats (Harlan Sprague Dawley, Inc). Epididymal fat pads were isolated, minced, and incubated with 0.2% collagenase I for 30 minutes at 37° C. Then, they were fractionated with the use of a Dounce homogenizer and centrifuged at 3000 g for 20 minutes to isolate vessels from adipocytes. Vascular stroma were washed with DMEM containing 0.2% BSA and incubated with DMEM containing 0.2% BSA with or without insulin for 6 hours at 37° C. T he purity of the isolated vascular stroma was quantified through immunohistochemical staining with anti-factor VIII antibody and through immunoblotting of the stroma with antibodies to smooth muscle cell alpha-actin. Only preparations that were stained positively in more than 90% of the vessels were used.\nTotal RNA from cultured BAECs, PKCβ1-overexpressed BAECs, and vascular stroma from the epididymal fat pads of Zucker rats were isolated according to the guanidinium thiocyanate-phenol-chloroform method with TRI Reagent (Molecular Research Center) and solution D containing 4 mol/L guanidinium thiocyanate, 25 mmol/L sodium citrate, pH 7.0, 0.5% sarcosyl, and 0.1 mol/L 2-mercaptoethanol. […] The quantification of eNOS mRNA levels was performed with a PhosphorImager (Molecular Dynamics) and normalized to 36B4 mRNA."}, "eNOS mRNA [4]": {"system": "eNOS mRNA", "experiment": "eNOS mRNA level in adenovirus-infected BAECs (PKCβ1 or β-Gal)", "type": "cell-based, bovine", "settings": "for increase of eNOS mRNA levels: LPC 100 μmol/L", "procedure": "The construction of a replication-deficient recombinant adenovirus for PKCβ1 expression was performed as described in Becker et al. Methods Cell Biol. 1994;43:161-189. Adenovirus-mediated gene transfer to confluent BAECs was performed through a 1-hour adenoviral infection of 10^9 pfu/mL at 37° C. in DMEM containing 10% PDHS. The infected BAECs were then incubated in DMEM containing 1% PDHS for 24 hours, incubated with or without insulin (100 nmol/L) for an additional 6 hours, and harvested. AdV-CMV-PKCβ1- or β-galactosidase (β-Gal)-infected BAECs were assessed for PKC activity and protein expression as previously described.\nas §2"}, "eNOS protein": {"system": "eNOS protein", "experiment": "Immunoblot analysis of eNOS protein in BAECs", "type": "cell-based, bovine", "procedure": "as §1\nCells were washed 3 times with ice-cold PBS, pH 7.4, lysed in 50 mmol/L Tris, pH 7.5, 2 mmol/L EDTA, 0.5 mmol/L EGTA, 2 mmol/L PMSF, 25 μg/mL leupeptin, 0.1 mg/mL aprotinin, 1 mmol/L dithiothreitol, 50 mmol/L NaF, and 1% Triton X-100 (Sigma Chemical Co); scraped from the dish; rotated for 1 hour at 4° C.; and centrifuged for 15 minutes at 14 000 g. Protein concentrations of the supernatant were measured according to the method of Bradford and separated with the use of 6% SDS-PAGE. The membrane was incubated for 1 hour with polyclonal anti-human eNOS antibody (Transduction Laboratories) diluted in PBS containing 0.1% Tween-20 and 1% BSA, washed 3 times for 10 minutes with PBS containing 0.1% Tween-20, and incubated with 0.1 μCi/ML ^125I-protein A (Amersham Life Science, Inc). Protein levels of eNOS were quantified with a PhosphorImager."}, "eNOS mRNA [5]": {"system": "eNOS mRNA", "experiment": "eNOS mRNA level in human umbilical endothelial cells", "type": "cell-based", "settings": "IGF-1 25 nmol/L"}},
  "data": [
    {"compound": "CCCCCCCCCCCCCC(=O)O[C@@H]1[C@@H](C)[C@@]2(O)[C@@H](C=C(CO)C[C@]3(O)C(=O)C(C)=C[C@@H]23)[C@@H]2C(C)(C)[C@]12OC(C)=O", "note": "[PMA, phorbol-12-myristate-13-acetate, reference compound]", "values": [
      {"measurement": "effect on insulin-induced IRS-2-associated PI-3 kinase activity", "setting": "[1]; PMA 100 nmol/L preincubation 30 minutes", "value": "mostly inhibited"},
      {"measurement": "basal PI-3 kinase activity", "setting": "[1]; PMA treatment", "value": "not changed"},
      {"measurement": "increase of eNOS mRNA expression", "setting": "eNOS mRNA [2]; PMA 100 nmol/L, 12 hours", "value": "66±11", "unit": "%"},
      {"measurement": "increase of eNOS mRNA expression", "setting": "eNOS mRNA [2]; PMA 100 nmol/L, 24 hours", "value": "105±14", "unit": "%"},
      {"measurement": "change of eNOS mRNA level", "setting": "eNOS mRNA [2]; PMA 100 nmol/L, initial 6 hours", "value": "did not change"},
      {"measurement": "remaining effect of insulin on eNOS mRNA levels after PMA preincubation", "setting": "eNOS mRNA [2]; preincubated with PMA for 30 minutes, then insulin", "value": "14±13", "unit": "%"}
    ]},
    {"compound": "insulin: insulin (Sigma Chemical Co), used to stimulate endothelial cells", "values": [
      {"measurement": "NOS activity", "setting": "NOS activity; after 24 hours", "value": "176±7", "unit": "pmol/mg protein min"},
      {"measurement": "increase of eNOS mRNA levels", "setting": "eNOS mRNA [3]; vascular stroma from Zucker lean rats", "value": "50±16", "unit": "%"},
      {"measurement": "effect on eNOS mRNA levels", "setting": "eNOS mRNA [3]; vascular stroma from insulin-resistant (Zucker fatty) rats", "value": "ineffective"},
      {"measurement": "increase of IRS-2-associated PI-3 kinase activity", "setting": "[1]; insulin 100 nmol/L, 5 minutes", "value": "5.4±0.4", "unit": "fold"},
      {"measurement": "enhancement of eNOS mRNA expression", "setting": "eNOS mRNA [4]; insulin 100 nmol/L, BAECs with or without adenovirus containing only β-Gal", "value": "≤ 2", "unit": "fold"},
      {"measurement": "change of eNOS mRNA levels", "setting": "eNOS mRNA [4]; insulin, cells infected with adenovirus containing the PKCβ1 isoform", "value": "did not increase"},
      {"measurement": "increase of eNOS protein level", "setting": "eNOS protein; insulin 100 nmol/L, Example 2", "value": "74±9", "unit": "%"},
      {"measurement": "increase of eNOS protein levels", "setting": "eNOS protein; insulin, 6 hours", "value": "43±16", "unit": "%"},
      {"measurement": "maximum increase of eNOS protein levels", "setting": "eNOS protein; insulin, 24 hours, maintained for 36 hours", "value": 2, "unit": "fold"},
      {"measurement": "concentration at which maximal effect on eNOS mRNA level was attained", "setting": "eNOS mRNA [2]", "value": "< 100", "unit": "nmol/L"},
      {"measurement": "response of eNOS mRNA expression", "setting": "eNOS mRNA [2]; insulin 0.1 nmol/L", "value": "significant increase"},
      {"measurement": "increase of eNOS mRNA level", "setting": "eNOS mRNA [2]; insulin 10 nmol/L", "value": "50±12", "unit": "%"},
      {"measurement": "maximum effect on eNOS mRNA level (dose response)", "setting": "eNOS mRNA [2]; insulin 100 nmol/L", "value": 2, "unit": "fold"},
      {"measurement": "increase of eNOS mRNA expression", "setting": "eNOS mRNA [2]; insulin 100 nmol/L, 1 hour", "value": "33±9", "unit": "%"},
      {"measurement": "increase of eNOS mRNA expression", "setting": "eNOS mRNA [2]; insulin 100 nmol/L, 6 hours", "value": "71±21", "unit": "%"},
      {"measurement": "maximum increase of eNOS mRNA expression", "setting": "eNOS mRNA [2]; insulin 100 nmol/L, 12 hours, maintained for 24 hours", "value": 2, "unit": "fold"},
      {"measurement": "increase of eNOS mRNA level compared with control", "setting": "eNOS mRNA [2]; insulin 100 nmol/L, Example 2", "value": "58±20", "unit": "%"}
    ]},
    {"compound": "IGF-1: recombinant insulin-like growth factor-1 (Upstate Biotechnology)", "values": [
      {"measurement": "increase of eNOS mRNA level", "setting": "eNOS mRNA [5]", "value": "47±10", "unit": "%"}
    ]},
    {"compound": "COC[C@H]1OC(=O)c2coc3c2[C@@]1(C)C1=C(C3=O)[C@@H]2CCC(=O)[C@@]2(C)C[C@H]1OC(C)=O", "note": "[wortmannin, reference compound]", "values": [
      {"measurement": "insulin-induced NOS activity after preincubation with inhibitor", "setting": "NOS activity; wortmannin 100 nmol/L preincubation for 15 minutes", "value": "123±13", "unit": "pmol/mg protein min"}
    ]},
    {"compound": "CN(C)CCCn1cc(C2=C(c3c[nH]c4ccccc34)C(=O)NC2=O)c2ccccc21", "note": "[GFX, reference compound]", "values": [
      {"measurement": "increase of eNOS mRNA expression", "setting": "eNOS mRNA [2]; GFX 5 μmol/L without insulin, 6 hours", "value": "38±10", "unit": "%"},
      {"measurement": "increase of eNOS mRNA expression compared with control cells", "setting": "eNOS mRNA [2]; both insulin and GFX", "value": "76±20", "unit": "%"}
    ]},
    {"compound": "CN(C)C[C@@H]1CCn2cc(c3ccccc32)C2=C(C(=O)NC2=O)c2cn(c3ccccc23)CCO1", "note": "[LY333531, reference compound]", "values": [
      {"measurement": "increase of eNOS mRNA expression", "setting": "eNOS mRNA [2]; LY333531 20 nmol/L", "value": "60±14", "unit": "%"}
    ]},
    {"compound": "lysophosphatidylcholine [LPC]", "values": [
      {"measurement": "increase of eNOS mRNA levels", "setting": "eNOS mRNA [4]; adenovirus-containing β-Gal cells", "value": 4.5, "unit": "fold"},
      {"measurement": "increase of eNOS mRNA levels", "setting": "eNOS mRNA [4]; control cells", "value": 5, "unit": "fold"},
      {"measurement": "increase of eNOS mRNA", "setting": "eNOS mRNA [4]; LPC, BAECs infected with the adenoviral-PKCβ1 isoform", "value": 4, "unit": "fold"}
    ]},
    {"compound": "O=c1cc(N2CCOCC2)oc2c(-c3ccccc3)cccc12", "note": "[LY294002, reference compound]", "values": [
      {"measurement": "decrease of basal eNOS protein level", "setting": "eNOS protein; LY294002 50 nmol/L", "value": "72±5", "unit": "%"},
      {"measurement": "decrease of basal eNOS mRNA expression", "setting": "eNOS mRNA [2]; LY294002 50 nmol/L, without insulin treatment", "value": "30±4", "unit": "%"}
    ]}
  ]
}
